Results on twelve molecules are retold here after patent US12617770B2, “IRAK inhibitor and preparation method therefor and use thereof” (WUHAN CREATERNA SCIENCE AND TECHNOLOGY CO., LTD., priority 2019, dated 2026).

The experiment has as its target T1, human IRAK4 (Homo sapiens, UniProt Q9NWZ3).
T1 construct: purchased Cama (so in the source)
T1 sequence (Q9NWZ3 1-460): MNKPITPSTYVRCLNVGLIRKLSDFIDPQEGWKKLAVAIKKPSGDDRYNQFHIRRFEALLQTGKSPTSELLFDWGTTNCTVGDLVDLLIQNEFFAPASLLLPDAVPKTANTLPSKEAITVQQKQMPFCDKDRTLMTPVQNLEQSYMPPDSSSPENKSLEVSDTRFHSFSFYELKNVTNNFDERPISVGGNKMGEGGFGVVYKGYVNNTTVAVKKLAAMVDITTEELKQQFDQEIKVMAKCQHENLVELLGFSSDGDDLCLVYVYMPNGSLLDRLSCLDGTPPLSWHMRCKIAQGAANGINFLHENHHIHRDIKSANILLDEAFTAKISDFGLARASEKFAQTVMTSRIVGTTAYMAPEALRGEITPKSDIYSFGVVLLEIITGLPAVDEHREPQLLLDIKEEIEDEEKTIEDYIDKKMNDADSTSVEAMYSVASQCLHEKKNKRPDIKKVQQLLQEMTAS
Put plainly: IRAK4 MSA (Mobility-Shift Assay) at Km concentration of ATP. Format: biochemical. The conditions noted are these: GST-IRAK4 1 nM, ATP 37 μM (Km); read-out: IC50 for inhibiting human IRAK4 activity. The protocol: A recombinant fusion protein of N-terminal GST (glutathione-S-transferase) and human IRAK4 was used as enzyme (GST-IRAK4, kinase IRAK4 (Cama, CAT No. 09-145)) at a final concentration of 1 nM; ATP (Sigma. CAT No. A7699-1G) was at a final concentration of 37 μM; • the substrates used for the kinase reaction were 5-FAM (5-carboxyfluorescein)-labeled polypeptide (5-FAM-[…]-COOH) and substrate peptide FAM-P8 (GL Biochem, CAT No. 112396) at final concentrations of 5 μM.
In this assay, 500 μM stock solutions of the compounds were prepared in 100% DMSO, and serially 4-fold diluted to the 10th concentration gradient with 100% DMSO, followed by a 10-fold dilution in the compound buffer (50 mM HEPES, pH 7.5, 0.00015% Brij-35) to give intermediate dilutions of the compounds at a final concentration of 10 μM−0.04 nM containing 10% DMSO. 5 μL of the intermediate dilution was transferred into a black 384-well plate.
IRAK4 was diluted to 2.5 nM in the kinase buffer (50 mM HEPES, pH 7.5, 0.00015% Brij-35, 2 mM DTT). 10 μL of the IRAK4 dilution was transferred to the 384-well plate and co-incubated with the compound for 10-15 min.
The substrate and ATP were diluted to 12.5 μM and 92.5 μM with reaction buffer (50 mM HEPES, pH 7.5, 0.00015% Brij-35, 10 mM MgCl2), respectively. 10 μL of the dilution was transferred to a 384-well plate and incubated at 28° C. for 1 h. The reaction was terminated by adding 25 μL of 50 mM EDTA to the 384-well plate.
The inhibition rate of IRAK4 by the compounds was calculated by measuring the rate of phosphorylated substrate using a Caliper EZ Reader (PerkinElmer) and the IC50 was calculated by XL-fit software. […] In particular, some exemplary compound activity values are as follows: […]

In the case of `Cc1cccc(C(=O)Nc2cc3cn([C@H]4CC[C@@H](O)CC4)nc3cc2OCC2CC2)[n+]1[O-]` [Compound 292, 2-((6-(cyclopropylmethoxy)-2-((1s,4s)-4-hydroxycyclohexyl)-2H-indazol-5-yl)carbamoyl)-6-methylpyridine 1-oxide], the IC50 turned out to be 14 nM. In the case of `Cc1cccc(C(=O)Nc2cc3cn([C@H]4CC[C@@](C)(O)CC4)nc3cc2N(C)C)[n+]1[O-]` [Compound 287, 2-((6-(dimethylamino)-2-((1s,4s)-4-hydroxy-4-methylcyclohexyl)-2H-indazol-5-yl)carbamoyl)-6-methylpyridine 1-oxide] it was 13 nM; in that of `COc1cc2nn([C@H]3CC[C@](C)(O)CC3)cc2cc1NC(=O)c1cccc(C2CC2)[n+]1[O-]` [Compound 002, 2-cyclopropyl-6-((2-((1r,4r)-4-hydroxy-4-methylcyclohexyl)-6-methoxy-2H-indazol-5-yl)carbamoyl) Pyridine 1-oxide], 3.7 nM. As for `COc1cc2nn([C@H]3CC[C@@](O)(C4CC4)CC3)cc2cc1NC(=O)c1cccc(C)[n+]1[O-]` [Compound 025, 2-((2-((1r,4r)-4-cyclopropyl-4-hydroxycyclohexyl)-6-methoxy-2H-indazol-5-yl)carbamoyl)-6-methylpyridine 1-oxide], the figure is 13 nM; as for `COc1cc2nn([C@H]3CC[C@](C)(O)CC3)cc2cc1NC(=O)c1cccc(C)n1` [Compound B, N-(2-((1r,4r)-4-hydroxy-4-methylcyclohexyl)-6-methoxy-2H-indazol-5-yl)-6-methylpicolinamide, reference compound], 30 nM; as for `COc1cc2nn([C@H]3CC[C@](C)(C#N)CC3)cc2cc1NC(=O)c1cccc(C)[n+]1[O-]` [Compound 291, 2-((2-((1r,4r)-4-cyano-4-methylcyclohexyl)-6-methoxy-2H-indazol-5-yl)carbamoyl)-6-methylpyridine 1-oxide], 14 nM. As for `COc1cc2nn([C@H]3CC[C@H](O)CC3)cc2cc1NC(=O)c1cccc(C(C)C)[n+]1[O-]` [Compound 015, 2-((2-((1r,4r)-4-hydroxycyclohexyl)-6-methoxy-2H-indazol-5-yl)carbamoyl)-6-isopropylpyridine 1-oxide], the figure is 5.4 nM. Regarding `COc1cc2nn([C@H]3CC[C@](C)(O)CC3)cc2cc1NC(=O)c1cccc(NC2CC2)[n+]1[O-]` [Compound 289, 2-(cyclopropylamino)-6-((2-((1r,4r)-4-hydroxy-4-methylcyclohexyl)-6-methoxy-2H-indazol-5-yl)carbamoyl)pyridine 1-oxide], the IC50 worked out at 1.7 nM. With `Cc1cccc(C(=O)Nc2cc3cn([C@H]4CC[C@H](O)CC4)nc3cc2OCC2CC2)[n+]1[O-]` [Compound 019, 2-((6-(cyclopropylmethoxy)-2-((1r,4r)-4-hydroxycyclohexyl)-2H-indazol-5-yl)carbamoyl)-6-methylpyridine 1-oxide], the IC50 was determined as 8.1 nM. In the case of `CCOc1cc2nn([C@H]3CC[C@@H](O)CC3)cc2cc1NC(=O)c1cccc(C)[n+]1[O-]` [Compound 220, 2-((6-ethoxy-2-((1s,4s)-4-hydroxycyclohexyl)-2H-indazol-5-yl)carbamoyl)-6-methylpyridine 1-oxide] it was 14 nM; in that of `COc1cc2nn([C@H]3CC[C@@](O)(CC#N)CC3)cc2cc1NC(=O)c1cccc(C2CC2)[n+]1[O-]` [Compound 176, 2-((2-((1r,4r)-4-(cyanomethyl)-4-hydroxycyclohexyl)-6-methoxy-2H-indazol-5-yl)carbamoyl)-6-cyclopropylpyridine 1-oxide], 4.3 nM; in that of `COc1cc2nn(C3CCCCC3)cc2cc1NC(=O)c1cccc(C)[n+]1[O-]` [Compound 285, 2-((2-cyclohexyl-6-methoxy-2H-indazol-5-yl)carbamoyl)-6-methylpyridine 1-oxide], 5.9 nM.

By IC50 is commonly meant the concentration at which inhibition is half-maximal.
